Some test systems named below: HCT-116 colon; HOP-92 NSCLC; OVCAR-8 ovarian; SF-295 CNS; SK-OV-3 ovarian; SN12C renal; SNB-75 CNS; UACC-257 melanoma.
What all share (test): NCI-60 cell line screen, 48 h

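All cell lines were grown in 96-well plates and treated with compound for 48 hours. The concentration for 50% growth inhibition is given as GI50. TGI marks complete inhibition of growth.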 Some results are limits rather than exact numbers.

For `Cn1c(N)c(N=Nc2ccc(S(N)(=O)=O)cc2)c(=O)n(C)c1=O`, the TGI in the experiment with HCT-116 colon, in the experiment with HOP-92 NSCLC, in the experiment on OVCAR-8 ovarian, in the experiment with SF-295 CNS, with SK-OV-3 ovarian and in the experiment with SN12C renal was above 100 µM in each case. Moreover, the TGI with SNB-75 CNS is 56.2 µM; with UACC-257 melanoma, above 100 µM.

In the case of `COc1ccc(/C(C)=C(\c2ccc(Cl)cc2)c2ccc(OCCN3CCCCC3)cc2)cc1F`, the GI50 is 2040 nM with HCT-116 colon; 2500 nM in the experiment on HOP-92 NSCLC; 4110 nM in the experiment with OVCAR-8 ovarian; 2.75 µM with SF-295 CNS; 5.92 µM in the experiment on SK-OV-3 ovarian; 2.75 µM with SN12C renal. For the same compound, the figures for the GI50 with SNB-75 CNS and in the experiment on UACC-257 melanoma were 4.29 µM and 3.1 µM, respectively. The TGI is 5.14 µM with HCT-116 colon; 6.08 µM in the experiment with HOP-92 NSCLC; 12.4 µM in the experiment with OVCAR-8 ovarian; 5.52 µM in the experiment on SF-295 CNS; above 16.7 µM in the experiment on SK-OV-3 ovarian; 7.24 µM in the experiment with SN12C renal. Further, the TGI with SNB-75 CNS is 13.1 µM; in the experiment with UACC-257 melanoma it was 7.04 µM.

As for `CC(=O)OC1C(OC/C2=C/C3[C@@H](C(C)C)CC=C(C)[C@@H]3CC(OC(=O)/C=C/c3cn(C)cn3)[C@]3(C)C=C[C@@]2(O)O3)OCC(O)C1O` (stereo not given in full), the GI50 was 11 nM with HCT-116 colon; 1020 nM in the experiment with HOP-92 NSCLC; 44.3 nM with OVCAR-8 ovarian; 0.03 µM in the experiment on SF-295 CNS; 0.0132 µM in the experiment with SK-OV-3 ovarian; 0.186 µM in the experiment on SN12C renal. Besides, the GI50 in the experiment on SNB-75 CNS was 0.00575 µM; with UACC-257 melanoma it was 0.0188 µM. In addition, the TGI in the experiment on HCT-116 colon was above 50 µM; with HOP-92 NSCLC it was above 50 µM; with OVCAR-8 ovarian it was above 50 µM; in the experiment on SF-295 CNS it was 0.296 µM; in the experiment with SN12C renal, above 50 µM; in the experiment with SNB-75 CNS, 0.0319 µM. In the experiment on UACC-257 melanoma, this compound gave a TGI above 50 µM.

On to `COc1ccc(N2CCN(CC(=O)N3CCN(c4nnc(-c5ccc(Cl)cc5)c(-c5ccc(Cl)cc5)n4)CC3)CC2)cc1`, for which the GI50 in the experiment on HCT-116 colon was 3960 nM; in the experiment with HOP-92 NSCLC, 11100 nM; with OVCAR-8 ovarian it was 22100 nM; with SF-295 CNS, 7.09 µM; in the experiment with SK-OV-3 ovarian, above 100 µM; in the experiment with SN12C renal it was 24.8 µM. Also, the GI50 with SNB-75 CNS was 13.2 µM; in the experiment with UACC-257 melanoma it was 18.9 µM. The TGI with HCT-116 colon is above 100 µM; with HOP-92 NSCLC, 30.5 µM; with OVCAR-8 ovarian, above 100 µM; in the experiment with SF-295 CNS, above 100 µM; with SK-OV-3 ovarian, above 100 µM; in the experiment on SN12C renal, above 100 µM. In addition, the TGI was 55.4 µM with SNB-75 CNS and above 100 µM with UACC-257 melanoma.

`CN(C)CCCn1c2c(c3ccc([N+](=O)[O-])cc3c1=O)C(=O)c1ccccc1-2`: the GI50 in the experiment on HCT-116 colon is 6480 nM; in the experiment with HOP-92 NSCLC, 9780 nM; in the experiment with OVCAR-8 ovarian, 17000 nM; in the experiment on SF-295 CNS, 8.63 µM; in the experiment with SK-OV-3 ovarian it was 28.1 µM; in the experiment with SN12C renal, 4.21 µM. Moreover, the GI50 in the experiment on SNB-75 CNS is 5.24 µM; in the experiment on UACC-257 melanoma, 38.1 µM. The TGI with HCT-116 colon is 21.8 µM; in the experiment with HOP-92 NSCLC it was above 100 µM; in the experiment on OVCAR-8 ovarian, 49.4 µM; with SF-295 CNS, above 100 µM; in the experiment with SK-OV-3 ovarian, above 100 µM; in the experiment on SN12C renal it was 24.5 µM. Moreover, the TGI is 19.3 µM in the experiment on SNB-75 CNS and above 100 µM in the experiment on UACC-257 melanoma.

For the compound `COc1ccc(/C=C2\CN(Cc3cn(CCCNc4ccnc5cc(Cl)ccc45)nn3)C/C(=C\c3ccc(OC)cc3)C2=O)cc1`, the GI50 with HCT-116 colon was 2800 nM; with HOP-92 NSCLC, 962 nM; in the experiment with OVCAR-8 ovarian, 2060 nM; with SF-295 CNS it was 14.2 µM; in the experiment with SK-OV-3 ovarian, 14.1 µM; with SN12C renal, 13.1 µM. Further, the GI50 with SNB-75 CNS was 3.89 µM; with UACC-257 melanoma, 8.28 µM. Also, the TGI with HCT-116 colon stood at 12.4 µM; with HOP-92 NSCLC, 15.9 µM; in the experiment on OVCAR-8 ovarian, 5.64 µM; in the experiment on SF-295 CNS, 31.4 µM; in the experiment on SK-OV-3 ovarian it was 30.6 µM; with SN12C renal, 33.8 µM. Also, the TGI came out at 19.7 µM with SNB-75 CNS and 23.3 µM in the experiment on UACC-257 melanoma.

On to `Cc1nc2cc(NC(=O)CN3CCN(CCN4C(=O)c5cccc6cccc(c56)C4=O)CC3)ccc2s1`, for which the GI50 in the experiment with HCT-116 colon was 2940 nM; in the experiment with HOP-92 NSCLC, 2130 nM; in the experiment on OVCAR-8 ovarian, 2770 nM; with SF-295 CNS, 3.48 µM; with SK-OV-3 ovarian it was 7.65 µM; with SN12C renal, 5.22 µM. Further, the GI50 is 3.51 µM with SNB-75 CNS and 5.83 µM with UACC-257 melanoma. Also, the TGI in the experiment on HCT-116 colon is 14.7 µM; with HOP-92 NSCLC it was 9.05 µM; in the experiment on OVCAR-8 ovarian it was 19.4 µM; in the experiment on SF-295 CNS, above 100 µM; in the experiment on SK-OV-3 ovarian, above 100 µM; in the experiment on SN12C renal it was above 100 µM. The values for the TGI in the experiment on SNB-75 CNS and in the experiment on UACC-257 melanoma were 21.4 µM and above 100 µM, respectively.

For the compound `O=C(/C=C/CN1CCCCC1)Nc1cc2c(Nc3ccc(F)c(Cl)c3F)ncnc2cc1OCCOC(F)F`, the GI50 in the experiment on HCT-116 colon is 1310 nM; in the experiment with HOP-92 NSCLC, 54.8 nM; in the experiment on OVCAR-8 ovarian, 805 nM; in the experiment on SF-295 CNS, 1.72 µM; in the experiment with SK-OV-3 ovarian, below 0.0201 µM; in the experiment with SN12C renal, 0.318 µM. The GI50 in the experiment with SNB-75 CNS is 0.265 µM; with UACC-257 melanoma, 1.74 µM. Besides, the TGI in the experiment on HCT-116 colon amounted to 8.43 µM; with HOP-92 NSCLC, 1.12 µM; in the experiment on OVCAR-8 ovarian, 10.3 µM; with SF-295 CNS it was 6.42 µM; with SK-OV-3 ovarian it was 0.263 µM; in the experiment with SN12C renal it was 5.93 µM. In addition, the TGI in the experiment with SNB-75 CNS was determined as 4.81 µM; with UACC-257 melanoma, 5.64 µM.

As to `CCCCc1ccc(C(N)=O)nc1`, the GI50 in the experiment with HCT-116 colon was above 100000 nM; with HOP-92 NSCLC it was above 100000 nM; in the experiment with OVCAR-8 ovarian, above 100000 nM; in the experiment with SF-295 CNS it was above 100 µM; in the experiment with SK-OV-3 ovarian, above 100 µM; with SN12C renal it was above 100 µM. Besides, the GI50 with SNB-75 CNS and in the experiment on UACC-257 melanoma was above 100 µM in each case. The TGI with HCT-116 colon, in the experiment with HOP-92 NSCLC, in the experiment on OVCAR-8 ovarian, with SF-295 CNS, in the experiment on SK-OV-3 ovarian and in the experiment on SN12C renal was above 100 µM in each case. Further, the TGI with SNB-75 CNS and in the experiment on UACC-257 melanoma was above 100 µM throughout.

The record behind these values is PubChem BioAssay (NCI).
